# Read-outs that look alike come from different tables or passages of the source.
# Experiments:
# [1] = tested on: L. donovani promastigotes 1S (MHOM/SD/62/1S); assay: Antileishmanial resazurin fluorimetric assay on promastigotes; type: cell-based, Leishmania donovani; settings: for IC50: Leishmania donovani
# Protocol: (§1) The cryopreserved chloroquine-sensitive (Pf3D7-(MRA-102)), the multi-resistant (PfDd2) of Plasmodium falciparum, and the promastigote form of Leishmania donovani strains were obtained from BEI Resources (https://www.beiresources.org/ (accessed on 16 February 2019)) and are routinely cultured at the Antimicrobial and Biocontrol Agents Unit, University of Yaoundé I.
# Leishmania donovani promastiogtes were cultured in Medium 199 (Sigma, Darmstadt, Germany) supplemented with 10% Heat-Inactivated fetal Bovine Serum (HIFBS) (Sigma, Darmstadt, Germany) and 100 IU/mL penicillin/streptomycin. The culture was maintained in 75 cm^2 cell culture flask at 28 °C and sub-cultured every 72 h.
# (§2) A stock solution was prepared at 100 mg/mL for each extract and fraction and at 50 mg/mL for isolated compound in 100% DMSO (Sigma–Aldrich, Munich, Germany). Master plates were then prepared by mixing 2 μL of each stock solution with 198 μL of fresh incomplete RPMI 1 640 culture medium to yield a concentration of 1 mg/mL for extract and fraction and of 0.5 mg/mL (1% DMSO) followed by a 5-fold serial dilution. Extracts and fractions were tested at concentrations ranging from 0.16 to 100 μg/mL, and isolated compounds at concentrations ranging from 0.08 to 50 μg/mL.
# The antileishmanial activity of crude extracts, derived fractions, and isolated compounds against cultured L. donovani promastigotes was evaluated using the resazurin fluorimetric assay as described by Siqueira-Neto et al. (2010). Briefly, promastigotes from a logarithmic phase culture (4 × 10^5 cells/mL; 90 μL) were seeded in 96-well microplates and treated with 10 μL of inhibitors at different triplicate concentrations (100 µg/mL–0.16 µg/mL for extract/fractions and 50 µg/mL–0.08 µg/mL for compounds). Plates were incubated for 28 h at 28 °C, followed by the addition of […] resazurin (0.15 mg/mL in DPBS; Sigma, Darmstadt, Germany). The negative and positive controls were, respectively, 0.1% DMSO and amphotericin B (Sigma, Darmstadt, Germany) (10–0.016 μg/mL) treated wells. After an additional incubation for 44 h, plates were then read on a Magelan Infinite M200 fluorescence plate reader (Tecan, Männedorf, Switzerland) at excitation and emission wavelengths of 530 and 590 nm, respectively. For each sample, growth inhibition percentages were calculated with Microsoft Excel Software; then, from the nonlinear regression fit, concentration–response curves were generated to deduce the median inhibitory concentration (IC50) using the GraphPad Prism 8.0 software.
# [2] = In vitro cytotoxicity assay (resazurin) on Raw 264.7 macrophage cells; type: cell-based, murine; settings: mouse
# Protocol: RAW 264.7 cells were obtained from RIKEN BioResource Centre Cell Bank (Tsukuba, Japan) and cultured in Dulbecco’s modified Eagle medium (DMEM) containing 1% penicillin–streptomycin and 10% FBS under 5% CO2 and humidified atmosphere at 37 °C and sub-cultured every 72 h.
# as §2
# The murine macrophages, Raw 264.7 cells were grown in a T-25 cm^2 flask containing the complete Dulbecco’s modified Eagle’s medium (Sigma–Aldrich, Munich, Germany) supplemented with 10% FBS (Sigma–Aldrich, Munich, Germany), 1% non-essential amino acids, and 1% (v/v) penicillin–streptomycin (Sigma–Aldrich, Munich, Germany) and incubated at 37° in a humidified atmosphere containing 5% CO2. For the experiments, 80–90% confluent cell culture was trypsinized, counted using a Neubauer haemacytometer, and seeded into a 96-well cell culture treated flat-bottomed plate (SARSTEDT, Inc. Newton, NC 28658, USA) at a cell density of 10^4 cells/well. Plates were incubated overnight to allow cell adhesion. Cells were then treated with serially diluted concentrations of crude extract, fractions, and isolated compounds for 48 h. Podophyllotoxin (Sigma–Aldrich, Munich, Germany) was used as positive control with the highest concentration of 10 μM. Afterwards, 10 μL of resazurin solution (0.15 mg/mL prepared in PBS) was added to each well, and the plates were additionally incubated for 4 h. Of important note, resazurin is a nonfluorescent, nontoxic, and cell-permeable blue dye which is used to quantify cell viability following its conversion into the highly fluorescent pink dye resorufin in response to changes in the reducing environment within the cytosol of the cell. The level of fluorescence that positively correlates with cell viability was measured using a Magellan Infinite M200 plate reader (Tecan, Germany) at an excitation wavelength of 530 nm and an emission wavelength of 590 nm. The growth proliferation percentage of cells was calculated with respect to the negative control. The concentration–response curves were plotted using inhibitory percentages versus the logarithm of the drug concentration to determine the concentration of drug that reduces cell viability by 50% (CC50) using GraphPad Prism 8.0 software. Selectivity indices (SI) [SI = CC50/IC50] were determined for each inhibitor based on their antiparasitic activity (IC50) and cell cytotoxicity (CC50 on Raw cells). Samples with SI greater than 10 were classified as poorly toxic toward Raw cells.
# [3] = tested on: P. falciparum chloroquine-sensitive (Pf3D7); assay: Antiplasmodial SYBR green I based fluorescence assay, chloroquine-sensitive strain; type: cell-based; settings: Plasmodium falciparum, read-out: Pf3D7 IC50 ± SD
# Description: as §1
# (§3) Plasmodium falciparum strains were maintained in 60 mm sterile petri dishes containing complete RPMI 1640 medium [RPMI 1640 (Sigma Aldrich) supplemented with 0.2% sodium bicarbonate (Sigma Aldrich), 0.5% Albumax II (Gibco), 1% hypoxanthine 100X (Gibco, Billings, MT, USA), 25 mM HEPES, and 0.04% gentamicin (Sigma Aldrich)] with fresh O^+ erythrocytes of healthy human volunteers suspended at 4% haematocrit (v/v) and incubated at 37 °C in a 5% CO2 humidified atmosphere. The medium was replaced daily with fresh complete medium to propagate the culture. Ten percent (10%) Giemsa-stained thin blood smears were examined microscopically under immersion oil to monitor cell-cycle transition and parasitaemia.
# as §2
# (§4) The use of mixed-stage cultures can enable the test molecules to interact with all the three stages (ring, trophozoite, and schizont) found during a 48-h life cycle of P. falciparum in culture. Moreover, starting the experiment with a synchronized ring stage culture provides the advantage of monitoring the growth inhibitory effect of test samples without a rise-up in parasitemia during the ring–trophozoite–schizont transitions. For this particular reason, parasites were synchronized at the ring stage by serial treatment with 5 % sorbitol for two days prior to each experiment with respect to Lambros and Vanderberg, 1979 [44] protocol.
# (§5) Drug sensitivity assay was carried out in 96-well microtitration plates using the SYBR green I based fluorescence assay (Smilkstein et al., 2004). […] The fact that human red blood host cells are anucleate allows the use of SYBR green for the proper monitoring of the growth of the malarial parasite.
# (§6) The 96 wells flat-bottom assay plates with sorbitol-synchronized ring stage parasites (haematocrit: 1%, parasitaemia: 2%, 90 μL) were incubated in the presence of 10 µL of pre-diluted extracts, fractions, isolated compounds, and reference drugs [Chloroquine and Artemisinin (Sigma–Aldrich, Munich, Germany)] at different triplicate concentrations (100 µg/mL–0.16 µg/mL for extract/fractions and 50 µg/mL–0.08 µg/mL for compounds). After an incubation period of 72 h at 37 °C, 100 μL of the SYBR Green I solution prepared in a lysis buffer (0.2 µL of 10,000× SYBR Green I per mL of lysis buffer) consisting of Tris (20 mM; pH 7.5), EDTA (5 mM), saponin (0.008%; m/v), and Triton X-100 (0.08%; v/v) was added to each well, mixed twice gently with a multi-channel pipette, and incubated in the dark at 37 °C for 1 h. Fluorescence was measured using the microplate reader Infinite M200 (Tecan) at an excitation and emission wavelength of 485 and 538 nm, respectively. […] The data analysis was performed with GraphPad Prism 8.0 software, fitting by nonlinear regression, and concentration–response curves were generated to determine the median inhibitory concentration (IC50) for each sample.
# [4] = tested on: P. falciparum chloroquine-resistant (PfDd2); assay: Antiplasmodial SYBR green I based fluorescence assay, chloroquine-resistant strain; type: cell-based; settings: Plasmodium falciparum, read-out: PfDd2 IC50 ± SD
# Description: as §1, §3, §2, §4, §5, §6
# The resistance index (RI) was determined as the ratio of the IC50 of the samples on the multi-resistant strain Dd2 and the IC50 on the chloroquine-sensitive strain 3D7 as reported by Douanla et al..
# [5] = tested on: leishmania promastigotes; design: method as in PMID 31085212; settings: β-sitosterol from Ifloga spicata; cited from earlier work
# [6] = tested on: Leishmania donovani strain MHOM/IN/1983/AG83; design: method as in PMID 24949478; settings: scopoletin from leaves of Canarium patentinervium; cited from earlier work
# [7] = molecular target: cholinesterase; design: method as in PMID 24949478; settings: cited from earlier work
# [8] = tested on: Leishmania; design: method as in PMID 30663371; settings: another study; cited from earlier work
# [9] = tested on: Pf 3D7; design: method as in PMID 34187456; settings: from Hymenostegia afzelii and Endodesmia calophylloides; read-out: IC50 against Pf 3D7; cited from earlier work
# [10] = tested on: PfDd2; design: method as in PMID 34187456; settings: from Hymenostegia afzelii and Endodesmia calophylloides; read-out: IC50 against PfDd2; cited from earlier work
# [11] = tested on: Leishmania donovani; design: method as in PMID 24802987, PMID 36399160; settings: cited from earlier work
# [12] = tested on: Leishmania donovani; design: method as in PMID 24802987, PMID 36399160; settings: cited from earlier work; remark: listed apart in the source
# [13] = promastigotes, resazurin assay, read-out: L. donovani Promastigote IC50 ± SD
# [14] = Raw 264.7 macrophages, 48 h treatment, resazurin, read-out: Cytotoxicity Raw Cells CC50 ± SD
# [15] = read-out: L. donovani Promastigote IC50 ± SD, promastigotes, resazurin assay
# [16] = chloroquine-sensitive strain 3D7, 72 h
# [17] = chloroquine-resistant strain Dd2, 72 h
smiles,measurement,setting,value
"C[C@@H]1[C@H](O)[C@@H](C)/C=C/C=C/C=C/C=C/C=C/C=C/C=C/[C@H](O[C@@H]2O[C@H](C)[C@@H](O)[C@H](N)[C@@H]2O)C[C@@H]2O[C@](O)(C[C@@H](O)C[C@@H](O)[C@H](O)CC[C@@H](O)C[C@@H](O)CC(=O)O[C@H]1C)C[C@H](O)[C@H]2C(=O)O [Amphotericin B, amphotericin B, reference compound]",IC50,[1]; [13],2.9 ± 0.46 mg/L
"CC[C@H](CC[C@@H](C)[C@H]1CC[C@H]2[C@@H]3CC=C4C[C@@H](O)CC[C@]4(C)[C@H]3CC[C@]12C)C(C)C [β-sitosterol (5), β-sitosterol]",CC50 at 48 h,[2]; [14],> 500 mg/L
same,IC50,"[3]; 3D7, 72 h",45.3 ± 1.66 mg/L
same,IC50,"[4]; DD2, 72 h",> 50 mg/L
same,IC50,[1]; [15],5.56 ± 0.74 mg/L
same,IC50 against leishmania promastigotes,[5],9.2 ± 0.06 mg/L
"CCN(CC)CCCC(C)Nc1ccnc2cc(Cl)ccc12 (stereo not shown) [Chloroquine, reference compound]",IC50,"[3]; 3D7, 72 h",0.85 ± 0.01 µM
same,IC50,"[4]; DD2, 72 h",21.7 ± 0.25 µM
"C[C@@H]1CC[C@H]2[C@@H](C)C(=O)O[C@@H]3O[C@@]4(C)CC[C@@H]1[C@]32OO4 [Artemesin, Artemisinin, reference compound]",IC50,"[3]; chloroquine-sensitive strain 3D7, 72 h, reference drugs in µM",0.02 µM
same,IC50,"[4]; chloroquine-resistant strain Dd2, 72 h, reference drugs in µM",23.7 ± 0.24 µM
"CC[C@H](/C=C/[C@@H](C)[C@H]1CC[C@H]2[C@@H]3CC=C4C[C@@H](O)CC[C@]4(C)[C@H]3CC[C@]12C)C(C)C [Stigmasterol (6), stigmasterol]",CC50 at 48 h,[2]; [14],> 500 mg/L
same,IC50,"[3]; 3D7, 72 h",> 50 mg/L
same,IC50,"[4]; DD2, 72 h",> 50 mg/L
same,IC50,[1]; [15],8.07 ± 0.9 mg/L
same,L. donovani Promastigote IC50 ± SD,"[1]; promastigotes, resazurin assay",9.14 ± 0.96 mg/L
"CCCCCCCC=CCCCCCCCCCCCCCC(O)C(O)C(COC1OC(CO)C(O)C(O)C1O)NC(=O)C(O)CCCCCCCCCCCCCC [Antroklaicerebroside (1), (2S,3S,4R,2′R,18E)N-((-3,4-dihydroxy-β-D-gluco-pyranosyl)oxy)hexacos-18-en-2-yl)-2-hydroxyhexadecanamide]",CC50 at 48 h,[2],> 500 mg/L
same,IC50,[3]; [16],42.04 ± 0.08 mg/L
same,IC50,[4]; [17],> 50 mg/L
same,IC50,[1]; [13],6.19 ± 0.79 mg/L
same,melting point,,184 to 186 °C
"COc1cc([C@@H]2c3cc4c(cc3[C@H](O)[C@H]3COC(=O)[C@H]23)OCO4)cc(OC)c1OC [Podophyllotoxin, reference compound]",CC50 at 48 h,"[2]; Raw 264.7 macrophages, positive control, unit µM, read-out: Cytotoxicity Raw Cells CC50 ± SD",0.71 ± 0.2 µM
"O=c1ccc2cc(O)c(O)cc2o1 [Esculetin (2), 6,7-dihydroxycoumarin]",CC50 at 48 h,[2],> 500 mg/L
same,IC50,[3]; [16],45.57 ± 0.08 mg/L
same,IC50,[4]; [17],9.3 ± 0.29 mg/L
same,IC50,[1]; [13],> 50 mg/L
"COc1cc2ccc(=O)oc2cc1O [Scopoletin (3), 7-hydroxy-6-methoxycoumarin]",CC50 at 48 h,[2],> 500 mg/L
same,IC50,[3]; [16],> 50 mg/L
same,IC50,[4]; [17],> 50 mg/L
same,IC50,[1]; [13],6.4 ± 0.8 mg/L
same,IC50 against Leishmania donovani strain MHOM/IN/1983/AG83,[6],163.3 mg/L
same,anticholinesterase activity IC50,[7],51 mg/L
same,antileishmanial activity IC50,[8],6.804 mg/L
"COc1c(O)cc2c(=O)oc3c(OC)c(O)cc4c(=O)oc1c2c34 [3,3′-Dimethylellagic acid (4), 3,3′-dimethylellagic acid]",CC50 at 48 h,[2],> 500 mg/L
same,IC50,[3]; [16],> 50 mg/L
same,IC50,[4]; [17],> 50 mg/L
same,IC50,[1]; [13],8.07 ± 0.9 mg/L
same,IC50,[9],4.27 µM
same,IC50,[10],1.36 µM
O=c1oc2c(O)c(O)cc3c(=O)oc4c(O)c(O)cc1c4c23 [ellagic acid],in vitro effect against Leishmania donovani,[11],exhibited an in vitro effect
same,parasitemia in in vivo antileishmanial mouse model,[12],significatively reduced parasitemia
